Measurements as given in US20260365684A1, “PHYTOSPHINGOSINE-3,4-CYCLICPHOSPHATE COMPOUND AND PHARMACEUTICAL COMPOSITION COMPRISING THE SAME” (AXCESO BIOPHARMA CO., LTD., priority 2022, published 2026).

Experiments:
[1] = tested on: C57BL/6 mice; assay: Survival in sepsis induced by cecal ligation and puncture (CLP); format: in vivo, mouse; conditions: 100 ng/mouse (5 μg/kg) i.v. at 6 and 16 hours after CLP; FIG. 7
Method: C57BL/6 mice aged 7-8 weeks were purchased from Jabio (Suwon, Gyeonggi-do) and sepsis was induced by cecal ligation and puncture (CLP).
Specifically, after anesthesia using 150 mg/kg of ketamine and 17.5 mg/kg of rompun, an abdominal incision of 1-2 cm was made to expose the cecum to induce sepsis. The cecum was ligated with 6-0 silk sutures at the distal end of the ileocecal valve, and a puncture was made with an 18-gauge needle. The perforated cecum was gently squeezed to push out 1-2 cm of feces, and the cecum was then retracted back into the abdominal cavity. The abdomen was then closed and pre-warmed normal saline (2.5 mL/100 g body weight) was injected into the mouse abdominal cavity immediately after the procedure. 6 and 16 hours after CLP treatment, the compound of formula (1a-1) was dissolved in phosphate buffered saline (PBS) and injected intravenously at 100 ng/mouse (5 μg/kg), and survival was examined for 10 days. […] In addition, as a drug-negative control, survival was examined in mice that received only PBS after CLP treatment.
For comparison, we also examined the survival of a control group treated with fingolimod (FTY720), a known S1P modulator, instead of the compound of formula (1a-1) under the same conditions.

[2] = tested on: APP/PS/Tau transgenic mice; assay: Intestinal length in an AD-induced animal model (APP/PS/Tau transgenic mice); format: in vivo, mouse; conditions: 1 mg/kg i.p. once every 3 days for 2 weeks, FIG. 2
Method: In neurodegenerative diseases (AD and PD), the length of the intestine tends to decrease as the disease progresses, so we looked for changes in intestinal length in an AD-induced animal model.
APP/PS/Tau transgenic mice were used as an AD-induced animal model. The compound of formula (1a-1) was administered intraperitoneally once every 3 days at a concentration of 1 mg/kg to 12-week-old transgenic mice for 2 weeks, and the changes in intestinal length of the mice were measured after 1 and 4 weeks.

[3] = tested on: IL-6; assay: IL-6 in serum after CLP treatment by ELISA; format: in vivo, mouse; conditions: serum at 18 hours, treated at 6 and 16 hours after CLP; FIG. 10
Method: After CLP treatment, the inflammatory cytokines TNF-α and IL-6 were analyzed by ELISA.
Specifically, after treating the compound of formula (1a-1) at 6 and 16 hours after CLP treatment, mouse blood was collected at 18 hours and allowed to stand at room temperature for 1 hour, then centrifuged at 3000 rpm for 10 minutes to obtain serum to analyze the amount of TNF-α and IL-6.

[4] = tested on: MYSEC (murine yolk sac endothelial cell) cell lines; assay: In vitro permeability of MYSEC cell line (LPS, trans well, HRP); format: cell-based; conditions: FIG. 11A
Method: Permeability was measured by an in vitro method using cell culture and in vivo method using Evans blue dye. To increase permeability, LPS was used in the in vitro method and CLP treatment was used in the in vivo method.
To measure permeability by an in vitro method, MYSEC (murine yolk sac endothelial cell) cell lines were used. MYSEC cell lines were placed in the top chamber of a trans well at 2.5×10^5 cells/well and treated with 300 ng of lipopolysaccharide (LPS) derived from Gram-negative bacteria in the presence of the compound of formula (1a-1) for 24 hours. The medium in the top chamber was replaced with 300 μl of serum-free medium containing 5 μl of streptoavidin-HRP. After 5 minutes, 20 μl of the medium in the lower chamber was taken and the activity of HRP was measured as absorbance at 450 nm.
To determine the mechanism by which the compound of formula (1a-1) improves permeability, the same experiment was performed by knocking down the SIRT1 protein in the MYSEC cell line.

[5] = tested on: SIRT1; assay: SIRT1 expression in HUVECs by western blot; format: cell-based, human
Method: To determine the increase in SIRT1 expression by the compound of formula (1a-1) prepared in Example 1 above in human umbilical vein endothelial cells (HUVECs), HUVECs were seeded at 5×10^5/4 ml in a 60 mm cell culture dish using ECBM2 medium (Promocell) and stabilized for 12 hours in an incubator maintained at 37 °C and 5% CO2, respectively.
The cells were then treated with 10 nM, 100 nM and 1000 nM of the compound of formula (1a-1) prepared in Example 1 above, respectively, and incubated for another 24 hours, and then SIRT1 expression was determined by western blot.

Structure (SMILES): CCCCCCCCCCCCCC[C@H]1OP(=O)(O)O[C@H]1[C@@H](N)CO.Cl [formula (1a-1), (4S,5R)-4-((S)-1-amino-2-hydroxyethyl)-2-hydroxy-5-tetradecyl-1,3,2-dioxaphosphoran-2-oxide hydrochloride]
- deaths after 10 days [1]: no deaths
- survival for 10 days [1]: more than 80%
- intestinal length at 4 weeks (6W) vs 1 week (3W) after administration [2]: the length of the intestine at 4 weeks is longer compared to the length of the intestine at 1 week
- intestinal length vs control group ([2]; untreated AD-induced mice as control): the intestinal length is increased
- amount of IL-6 [3]: significantly decreased
- permeability, SIRT1 knockdown ([4]; MYSEC with knockdown of SIRT1 protein, LPS): does not show the effect
- permeability ([4]; MYSEC, 300 ng LPS, 24 hours): restores the LPS-induced increased permeability to normal
- concentration increasing SIRT1 expression relative to that of resveratrol ([5]; HUVEC EC50 about 10 nM vs known EC50 of resveratrol approximately […] μM): thousands of times lower than that of resveratrol
- increase in SIRT1 expression ([5]; HUVECs, 10 nM, 100 nM and 1000 nM, 24 hours, FIG. 1): increases the expression of SIRT1 even at a very low concentration of 10 nM
- EC50 ([5]; Homo sapiens, HUVEC, HUVECs, 24 hours, western blot, read-out: concentration (EC50) that increased the expression of SIRT1 by 50%): ~10 nM
